# Earlier results, collected in patent US8426470B2, “Method for alleviating signs and symptoms of spasticity” (Sun Pharmaceutical Industries Ltd., priority 2006, dated 2013).
# Columns and labels:
# spasticity = conditions: in vivo
structure (smiles),measurement,setting,value
"NCC(CC(=O)O)c1ccc(Cl)cc1 (centres unmarked) [Baclofen, 4-amino-3-(4-chlorophenyl)-butanoic acid]",lowest concentration in plasma at which a significant reduction in spasticity was observed,spasticity,90 ng/mL
same,Plasma elimination half-life,in vivo,approximately 3.5 hours
same,concentrations in the cerebrospinal fluid (CSF) relative to those in the plasma,in vivo,about 12%
same,elimination half-life from the CSF,in vivo,4 to 5 h
same,fraction metabolized in the liver,remainder excreted mainly by the kidneys in unchanged form,15%
